Source: US10597388B2, “Pyridazinone herbicides” (FMC CORPORATION, priority 2014, dated 2020)

Columns and labels:
Format in all cases: in vivo
[1] = system: barnyardgrass (Echinochloa crus-galli); assay: Test A greenhouse herbicide test, pre- and postemergence
Method in brief: (§1)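 Seeds in loam–sand blend received a preemergence directed soil spray; plants at 2–10 cm, one- to two-leaf stage, received postemergence sprays. Compounds in a non-phytotoxic solvent with surfactant. After about 10 d in a greenhouse, injury rated visually versus untreated controls on a 0–100 scale (100 = complete control).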

kochia (Kochia scoparia) = assay: as above
Method in brief: as §1

corn (Zea mays) = assay: Test C greenhouse herbicide test, pre- and postemergence
Method in brief: (§2)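 Visual ratings on a 0 to 100 scale (0 = no effect, 100 = complete control) versus untreated controls, scored 13–15 d after treatment. Soil-applied preemergence to seeded loam/sand; foliar postemergence to 1- to 4-leaf plants (2–18 cm) in peat-vermiculite mix; compounds formulated in solvent plus surfactant.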

[2] = system: crabgrass, large (large crabgrass, Digitaria sanguinalis); assay: as above
Method in brief: as §2

[3] = system: foxtail, giant (giant foxtail, Setaria faberii); assay: as above
Method in brief: as §2

[4] = system: johnsongrass (Sorghum halepense); assay: as above
Method in brief: as §2

[5] = system: lambsquarters (Chenopodium album); assay: as above
Method in brief: as §2

[6] = system: morningglory (Ipomoea coccinea); assay: as above
Method in brief: as §2

[7] = system: oilseed rape (Brassica napus); assay: as above
Method in brief: as §2

[8] = system: waterhemp (common waterhemp, Amaranthus rudis); assay: as above
Method in brief: as §2

[9] = system: wheat (winter wheat, Triticum aestivum); assay: as above
Method in brief: as §2

[10] = Postemergence, 125 g ai/ha, visual rating after approx. 10 d, 0 to 100 scale (0 no effect, 100 complete control)
[11] = Postemergence, 500 g ai/ha, 0 to 100 scale, 0 is no effect, 100 is complete control
[12] = Preemergence, 125 g ai/ha, 0 to 100 scale where 0 is no effect and 100 is complete control
[13] = Preemergence, 500 g ai/ha, 0 to 100 scale, 0 no effect, 100 complete control
[14] = Postemergence, 8 g ai/ha, scale 0 to 100 (0 no effect, 100 complete control)
[15] = Postemergence, 16 g ai/ha, scale 0 to 100 (0 no effect, 100 complete control)
[16] = Postemergence, 31 g ai/ha, 0 to 100 scale (0 no effect, 100 complete control)
[17] = Preemergence, 8 g ai/ha, scale 0 to 100, 0 is no effect, 100 is complete control
[18] = Preemergence, 16 g ai/ha, scale 0 to 100, 0 is no effect, 100 is complete control
[19] = Preemergence, 31 g ai/ha, scale 0 to 100, 0 is no effect, 100 is complete control
[20] = Preemergence, 62 g ai/ha, scale 0 to 100, 0 is no effect, 100 is complete control
[21] = postemergence, 62 g ai/ha, scale 0 to 100, 0 no effect, 100 complete control
[22] = Postemergence, 1000 g ai/ha, 0 to 100 scale, 0 is no effect, 100 is complete control
[23] = Preemergence, 1000 g ai/ha, 0 to 100 scale, 0 no effect, 100 complete control
[24] = Postemergence, 125 g ai/ha, scale 0 to 100, 0 is no effect, 100 is complete control
[25] = Postemergence, 250 g ai/ha, scale 0 to 100, 0 no effect, 100 complete control, 13 to 15 d
[26] = Preemergence, 125 g ai/ha, scale 0 to 100, 0 is no effect, 100 is complete control
[27] = Preemergence, 250 g ai/ha, scale 0 to 100, 0 no effect, 100 complete control

Cc1nn(C)c(=O)c(-c2c(C)sc3c(C)cc(Cl)cc23)c1O [Compound 35]
Plant response rating, Barnyardgrass [1, 10]: 50 | Barnyardgrass plant response rating [1, 11]: 90 | Barnyardgrass plant response rating [1, 12]: 60 | Plant response rating, Barnyardgrass [1, 13]: 90 | Plant response rating, Kochia (kochia (Kochia scoparia); [10]): 80 | Kochia plant response rating (kochia (Kochia scoparia); [11]): 100 | Kochia plant response rating (kochia (Kochia scoparia); [12]): 40 | Plant response rating, Kochia (kochia (Kochia scoparia); [13]): 70 | Plant response rating, Corn (corn (Zea mays); [14]): 0 | Plant response rating, Corn (corn (Zea mays); [15]): 0 | Corn plant response rating (corn (Zea mays); [16]): 5 | Plant response rating, Corn (corn (Zea mays); [17]): 0 | Plant response rating, Corn (corn (Zea mays); [18]): 0 | Plant response rating, Corn (corn (Zea mays); [19]): 0 | Plant response rating, Corn (corn (Zea mays); [20]): 0 | Corn plant response rating (corn (Zea mays); [21]): 5 | Plant response rating, Crabgrass, Large [2, 14]: 5 | Plant response rating, Crabgrass, Large [2, 15]: 5 | Crabgrass, Large plant response rating [2, 16]: 20 | Plant response rating, Crabgrass, Large [2, 17]: 0 | Plant response rating, Crabgrass, Large [2, 18]: 0 | Plant response rating, Crabgrass, Large [2, 19]: 5 | Plant response rating, Crabgrass, Large [2, 20]: 5 | Crabgrass, Large plant response rating [2, 21]: 20 | Plant response rating, Foxtail, Giant [3, 14]: 25 | Plant response rating, Foxtail, Giant [3, 15]: 35 | Foxtail, Giant plant response rating [3, 16]: 50 | Plant response rating, Foxtail, Giant [3, 17]: 5 | Plant response rating, Foxtail, Giant [3, 18]: 25 | Plant response rating, Foxtail, Giant [3, 19]: 60 | Plant response rating, Foxtail, Giant [3, 20]: 85 | Foxtail, Giant plant response rating [3, 21]: 75 | Plant response rating, Johnsongrass [4, 14]: 10 | Plant response rating, Johnsongrass [4, 15]: 15 | Johnsongrass plant response rating [4, 16]: 20 | Plant response rating, Johnsongrass [4, 18]: 0 | Plant response rating, Johnsongrass [4, 19]: 10 | Plant response rating, Johnsongrass [4, 20]: 10 | Johnsongrass plant response rating [4, 21]: 20 | Plant response rating, Lambsquarters [5, 14]: 35 | Plant response rating, Lambsquarters [5, 15]: 75 | Lambsquarters plant response rating [5, 16]: 80 | Plant response rating, Lambsquarters [5, 18]: 5 | Plant response rating, Lambsquarters [5, 19]: 20 | Plant response rating, Lambsquarters [5, 20]: 100 | Lambsquarters plant response rating [5, 21]: 70 | Plant response rating, Morningglory [6, 14]: 100 | Plant response rating, Morningglory [6, 15]: 100 | Morningglory plant response rating [6, 16]: 100 | Plant response rating, Morningglory [6, 18]: 25 | Plant response rating, Morningglory [6, 19]: 25 | Plant response rating, Morningglory [6, 20]: 98 | Morningglory plant response rating [6, 21]: 100 | Plant response rating, Oilseed Rape [7, 14]: 0 | Plant response rating, Oilseed Rape [7, 15]: 0 | Plant response rating, Oilseed Rape [7, 18]: 5 | Plant response rating, Oilseed Rape [7, 19]: 90 | Plant response rating, Oilseed Rape [7, 20]: 90 | Oilseed Rape plant response rating [7, 21]: 10 | Plant response rating, Waterhemp [8, 14]: 0 | Plant response rating, Waterhemp [8, 15]: 30 | Waterhemp plant response rating [8, 16]: 25 | Plant response rating, Waterhemp [8, 18]: 40 | Plant response rating, Waterhemp [8, 19]: 40 | Plant response rating, Waterhemp [8, 20]: 50 | Waterhemp plant response rating [8, 21]: 45 | Plant response rating, Wheat [9, 14]: 0 | Plant response rating, Wheat [9, 15]: 0 | Wheat plant response rating [9, 16]: 0 | Plant response rating, Wheat [9, 18]: 0 | Plant response rating, Wheat [9, 19]: 0 | Plant response rating, Wheat [9, 20]: 5 | Wheat plant response rating [9, 21]: 5

CCc1ccc2ccccc2c1-c1c(O)c(C)nn(C)c1=O [Compound 32]
Barnyardgrass plant response rating [1, 22]: 90 | Plant response rating, Barnyardgrass [1, 23]: 100 | Kochia plant response rating (kochia (Kochia scoparia); [22]): 100 | Plant response rating, Kochia (kochia (Kochia scoparia); [23]): 100 | Corn plant response rating (corn (Zea mays); [16]): 0 | Plant response rating, Corn (corn (Zea mays); [24]): 30 | Plant response rating, Corn (corn (Zea mays); [25]): 40 | Plant response rating, Corn (corn (Zea mays); [19]): 0 | Plant response rating, Corn (corn (Zea mays); [20]): 0 | Plant response rating, Corn (corn (Zea mays); [26]): 0 | Corn plant response rating (corn (Zea mays); [27]): 35 | Corn plant response rating (corn (Zea mays); [21]): 20 | Crabgrass, Large plant response rating [2, 16]: 10 | Plant response rating, Crabgrass, Large [2, 24]: 75 | Plant response rating, Crabgrass, Large [2, 25]: 70 | Plant response rating, Crabgrass, Large [2, 19]: 0 | Plant response rating, Crabgrass, Large [2, 20]: 35 | Plant response rating, Crabgrass, Large [2, 26]: 70 | Crabgrass, Large plant response rating [2, 27]: 100 | Crabgrass, Large plant response rating [2, 21]: 30 | Foxtail, Giant plant response rating [3, 16]: 15 | Plant response rating, Foxtail, Giant [3, 24]: 80 | Plant response rating, Foxtail, Giant [3, 25]: 90 | Plant response rating, Foxtail, Giant [3, 19]: 55 | Plant response rating, Foxtail, Giant [3, 20]: 80 | Plant response rating, Foxtail, Giant [3, 26]: 85 | Foxtail, Giant plant response rating [3, 27]: 85 | Foxtail, Giant plant response rating [3, 21]: 50 | Johnsongrass plant response rating [4, 16]: 5 | Plant response rating, Johnsongrass [4, 24]: 15 | Plant response rating, Johnsongrass [4, 25]: 35 | Plant response rating, Johnsongrass [4, 19]: 0 | Plant response rating, Johnsongrass [4, 20]: 0 | Plant response rating, Johnsongrass [4, 26]: 10 | Johnsongrass plant response rating [4, 27]: 45 | Johnsongrass plant response rating [4, 21]: 25 | Lambsquarters plant response rating [5, 16]: 85 | Plant response rating, Lambsquarters [5, 24]: 98 | Plant response rating, Lambsquarters [5, 25]: 100 | Plant response rating, Lambsquarters [5, 19]: 80 | Plant response rating, Lambsquarters [5, 20]: 70 | Plant response rating, Lambsquarters [5, 26]: 85 | Lambsquarters plant response rating [5, 27]: 90 | Lambsquarters plant response rating [5, 21]: 90 | Morningglory plant response rating [6, 16]: 90 | Plant response rating, Morningglory [6, 24]: 100 | Plant response rating, Morningglory [6, 25]: 100 | Plant response rating, Morningglory [6, 19]: 80 | Plant response rating, Morningglory [6, 20]: 90 | Plant response rating, Morningglory [6, 26]: 98 | Morningglory plant response rating [6, 27]: 98 | Morningglory plant response rating [6, 21]: 100 | Oilseed Rape plant response rating [7, 16]: 10 | Plant response rating, Oilseed Rape [7, 24]: 60 | Plant response rating, Oilseed Rape [7, 25]: 90 | Plant response rating, Oilseed Rape [7, 19]: 25 | Plant response rating, Oilseed Rape [7, 20]: 90 | Plant response rating, Oilseed Rape [7, 26]: 90 | Oilseed Rape plant response rating [7, 27]: 100 | Oilseed Rape plant response rating [7, 21]: 60 | Waterhemp plant response rating [8, 16]: 70 | Plant response rating, Waterhemp [8, 24]: 85 | Plant response rating, Waterhemp [8, 25]: 98 | Plant response rating, Waterhemp [8, 20]: 100 | Plant response rating, Waterhemp [8, 26]: 100 | Waterhemp plant response rating [8, 27]: 100 | Waterhemp plant response rating [8, 21]: 80 | Wheat plant response rating [9, 16]: 5 | Plant response rating, Wheat [9, 24]: 25 | Plant response rating, Wheat [9, 25]: 40 | Plant response rating, Wheat [9, 20]: 45 | Plant response rating, Wheat [9, 26]: 50 | Wheat plant response rating [9, 27]: 70 | Wheat plant response rating [9, 21]: 15
